We go through one compound from patent publication US11007206B2, “Cyclic boronic acid ester derivatives and therapeutic uses thereof” (Melinta Subsidiary Corp., priority 2012, dated 2021).

Data set [1] in a line: Plasma pharmacokinetics of Compound I and Biapenem alone or in combination after 1.5 hour intravenous infusion in Sprague-Dawley rats (Example 3). The class given is in vivo. Particulars: Sprague-Dawley rats; for AUC / clearance / half-life: male, Sprague-Dawley, rat, plasma, iv, 20 mg/kg, 1.5 hour intravenous infusion. The protocol:
Example 3 provides a summary of the pharmacokinetic studies of Compound I alone or in combination with Biapenem following a single intravenous infusion dose in Sprague-Dawley rats. The pharmacokinetics of 20 mg/kg of Compound I, 20 mg/kg of Biapenem, and 20 mg/kg of Compound I in combination with 20 mg/kg of Biapenem after a 1.5 hour intravenous infusion were discussed.
Biapenem power was purchased from Hisun Pharmaceuticals. Compound I was prepared using the method described in the U.S. Publication 2012/0040932 A1. 20 mg of biapenem was dissolved in 0.1 M NaH2PO4 for a basic stock solution. 100 mg of Compound I was dissolved in 30% 1N NaOH to ˜pH 5.0. For animal studies, these stock solutions were further diluted in 0.9% saline to the appropriate concentration.
The specifications for animals used on this study were as follows: • Species: Rat • Strain: Sprague-Dawley • Gender: Male • Source: Charles River (Hollister, Calif.) • Number of Animals: 3 per study • Body Weight Range: 230-280 g at the start of the study
After acclimation, rats (n=3) were administered single 20 mg/kg intravenous infusion doses of Compound I or Biapenem alone or in combination. Doses were infused over 1.5 hours via an indwelling femoral vein cannula. Plasma (˜0.3 mL) samples were collected from each rat at designated time points up to 24 hours. The time points are shown in section 2.9. Blood samples were centrifuged within 5 min of collection at 12000 g for 5 min to obtain plasma. The plasma samples were stored on −80° C. until analyzed.
Compound I standard curves were prepared in rat plasma from 0.1 to 100 μg/mL. 50 μl aliquots of sample were placed in 1.5 mL microcentrifuge tubes. 20 μl of Compound II (10 μg/mL) was added as internal standard to each sample or standard. 20 μl of 30% trichloroacetic acid was then added to each sample or standard. The samples were mixed using a vortex mixer centrifuged for 10 min at 15,000 RPM using a tabletop centrifuge. The supernatant (approx. 120 μl) was removed and added to 100 μl of water in a 96-well plate. The samples were mixed again using a vortex mixer. 10 μl of each sample was injected onto an HPLC-MS for quantification.
The HPLC-MS conditions for Compound I analysis are as follows: • Column: Phenomenex Fusion-RP or equivalent reversed-phase column, 5 um, 50×2 mm. • Flow rate: 0.6 mL/min. • Mobile phase A: 0.1% formic acid in water. • Mobile phase B: 0.1% formic acid in acetonitrile. • Gradient: 5-60% B in 1.5 min. • Mass spectrometer: Negative ion mode with electrospray ionization. • MS/MS: Compound I-Q1-m/e=296, Q3-m/e=234. • Compound II-Q1-m/e=331, Q3-m/e=201.
Biapenem standard curves were prepared in 50% plasma-50% 1M MOPS buffer, pH=7.4 from 1 to 250 ug/mL. 20 uL of sample or standard was added into a 96-well deep well plate. Then 500 uL of 10% water-45% methanol-45% acetonitrile containing 2 ug/mL of meropenem was used as an internal standard. The plate was vortexed for 15 min. at 3,000 RPM. 50 uL of supernatant was removed and added 300 uL of water. 10 uL of samples were injected onto an HPLC-MS system for quantification.
The HPLC-MS conditions for Biaphenem analysis are as follows: • Column: Supelco Discovery HS F5 or equivalent pentafluorophenyl column, 5 um, 50×2.1 mm. • Flow rate: 0.6 mL/min. • Mobile phase A: 0.1% formic acid in water. • Mobile phase B: 0.1% formic acid in acetonitrile. • Gradient: 5-70% B in 1.9 min. • Mass spectrometer: Positive ion mode with electrospray ionization. • MS/MS: Biapenem-Q1-m/e=350.8, Q3-m/e=110.1. • meropenem-Q1-m/e=384.1, Q3-m/e=141.1
Plasma concentrations were fit using a two compartment IV infusion model (WinNonlinVersion 5.3, Pharsight Corp, Mountain View, Calif.).

The subject of the next data set is KPC-producing strains. Kind of data set: Time-kill assays of Biapenem with Compound I (Example 4). The class given is cell-based, Enterobacteriaceae. Particulars: KPC-producing strains (Biapenem MICs of 16-32 ug/ml). The protocol: The evaluation of Compound I in combination with the carbapenem antibiotic Biapenem against multi-drug resistant strains of Enterobacteriaceae, including those producing serine carbapenemases were also conducted. Antibiotic potentiation activity of Compound I was studied in checkerboard MIC experiments and time-kill assays. The MICs of Biapenem were determined alone or in combination with Compound I added at fixed concentrations between 0.5 and 16 ug/ml) against characterized and engineered isolates producing various beta-lactamases, as well as in geographically diverse panels of multi-drug resistant strains of Enterobacteriaceae (including strains that express the most relevant beta-lactamases).

A further data set deals with P. aeruginosa. Kind of data set: Potency of Biapenem with or without Compound I against P. aeruginosa (Example 4). The class given is cell-based. Particulars: P. aeruginosa.
Setting [2] is: 20 mg/kg Compound I in combination with 20 mg/kg Biapenem.

A word on the AUC: it is the area under the concentration-time curve, a measure of exposure. As a reminder, the clearance is the rate of elimination divided by the concentration. A word on the half-life: it is how long it takes for the measured level to halve. In the case of `O=C(O)C[C@@H]1CC[C@H](NC(=O)Cc2cccs2)B(O)O1` [Compound I], the “Plasma pharmacokinetic parameters, alone versus in combination” value in data set [1] (single intravenous infusion) is recorded as “unchanged”. Further, in data set [1] (setting [2]), the AUC came to 10400 ± 1150 ng·h/mL, the clearance is 32.5 mL/min/kg and the half-life is 23.4 ± 6.6 min. Moreover, in data set [1] (administered alone), the exposure (AUC) is 11000 ± 860 ng·h/mL, the clearance is 33 mL/min/kg and the half-life is 43.2 ± 9 min. The “Time-kill: effect of the addition of Compound I to Biapenem” value in the data set with KPC-producing strains is reported as “significant bactericidal synergism”. The “Enhancement of Biapenem potency by the addition of Compound I” value in the data set on P. aeruginosa is “no enhancement”.
